Drawing on patent publication US9181214B2 (RHIZEN PHARMACEUTICALS SA, priority 2011, dated 2015), this text covers EC50 and activation for 1 molecule.

Where only a bound is given, the exact number is not on record here.

What all share (format): cell-based
In one experiment the test system is HIT-T15 cells. Kind of experiment: In vitro HIT-T15 cyclic AMP assay. As to conditions: cAMP. On the procedure: C. In Vitro HIT-T15 Cyclic AMP Assay:
(§1) cAMP measurements were done using a Cisbio dynamic 2 HTRF kit (Cisbio, Bedford, Mass.) according to the manufacturer's protocol. Briefly, HIT-T15 cells were harvested, counted and plated at 4000 cells/5 ul PBS-BSA solution in a black 384 welled small volume plate. Cells were treated with desired concentrations of compounds and incubated for 60 min at room temperature. Lysis buffer containing cAMP-d2 and cryptate conjugate were added and incubated for 1 h. HRTF ratio was measured on a microplate reader (BMG Labtech., Germany) at an excitation wavelength of 337 nm and emission wavelengths of 665 and 615 nm with an integration time of 400 μsec. Data were analyzed using Graphpad Prism (Graphpad software; San Diego Calif.) for EC50 determination.

A further experiment has as its target T1, Mouse GPR119 (Mus musculus, UniProt Q7TQP3).
T1 construct: expressed in transfected cells
T1 sequence (Q7TQP3 1-335): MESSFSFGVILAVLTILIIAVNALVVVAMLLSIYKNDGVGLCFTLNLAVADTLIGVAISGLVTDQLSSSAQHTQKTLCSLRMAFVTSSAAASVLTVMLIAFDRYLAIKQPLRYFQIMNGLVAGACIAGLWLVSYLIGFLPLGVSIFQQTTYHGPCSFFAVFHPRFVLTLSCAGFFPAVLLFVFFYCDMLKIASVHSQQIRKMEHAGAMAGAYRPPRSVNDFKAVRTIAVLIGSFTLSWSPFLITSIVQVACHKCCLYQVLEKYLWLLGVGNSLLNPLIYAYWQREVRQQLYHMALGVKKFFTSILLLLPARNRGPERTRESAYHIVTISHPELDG
Put plainly: In vitro mouse GPR 119 cyclic AMP assay in stably transfected HEK293 cells. The following applies: cAMP, HEK293 cells stably transfected with mouse GPR119. As to the method: B. In Vitro Mouse GPR 119 Cyclic AMP Assay:
as §1, with “HEK293 Cells were stably transfected with Mouse GPR119 expression plasmid DNA using Lipofectamine 2000 (Invitrogen) and maintained in culture. Cells” for “Briefly, HIT-T15 cells”, “1000” for “4000”, “ul” for “ul PBS-BSA solution”

For another experiment, the target named is T2, human GPR119 (Homo sapiens, UniProt Q8TDV5).
T2 construct: expressed in transfected cells; host or cells: HEK293 (transient transfection, Lipofectamine 2000)
T2 sequence (Q8TDV5 1-335): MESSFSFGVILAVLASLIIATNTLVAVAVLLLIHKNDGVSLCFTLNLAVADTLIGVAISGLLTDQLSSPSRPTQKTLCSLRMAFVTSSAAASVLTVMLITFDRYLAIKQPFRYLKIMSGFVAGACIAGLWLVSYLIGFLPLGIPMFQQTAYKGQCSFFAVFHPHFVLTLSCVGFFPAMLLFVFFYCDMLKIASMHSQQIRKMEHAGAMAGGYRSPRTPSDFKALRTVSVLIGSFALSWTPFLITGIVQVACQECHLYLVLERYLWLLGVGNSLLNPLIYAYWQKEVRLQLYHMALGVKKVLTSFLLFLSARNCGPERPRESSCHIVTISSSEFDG
Kind of experiment: In vitro cyclic AMP assay (Cisbio HTRF) in HEK293 cells transfected with human GPR119. The following applies: cAMP, Table I. The method, boiled down:
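HEK293 cells transiently transfected with human GPR119 plasmid (or empty vector), replated 24 h later and exposed to compounds for 60 min at room temperature. cAMP measured by HTRF (cAMP-d2/cryptate, 665/620 nm ratio) after 1 h lysis; EC50 from concentration-response curves, also % induction at 10 μM.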
A general note: In TR-FRET formats the signal depends on donor and acceptor labels being close together.

On to `CC(C)(C)OC(=O)N1CCC(c2nc3cc(-c4ccc(-n5cnnn5)cc4F)ccc3o2)CC1` [EXAMPLE-12, Tert-butyl 4-{5-[2-fluoro-4-(1H-tetrazol-1-yl)phenyl]benzo[d]oxazol-2-yl}piperidine-1-carboxylate], for which the EC50 in the experiment with HIT-T15 cells is less than 25 nM; at Mouse GPR119 it was less than 25 nM; at human GPR119 (Emax varies between 65 to 80%) it was no more than 25 nM. Further, the activation at 10 µM at human GPR119 (1 h, % Induction @ 10 μM) was 83%.

Broadly, the EC50 is the concentration needed to bring the measured effect to its halfway point. Read a high EC50 as weaker potency.
